The source of these data is US7482453B2, “Process for the manufacture of (+)-(S)-clopidogrel bisulfate form-1” (Wockhardt Ltd., priority 2003, dated 2009).

Counter-ions that a name gives are not always drawn.

The subject of one series is platelet aggregation. The note with it: cited from earlier work; for Platelet aggregation inhibiting activity of the enantiomers: as described in EP 281459.
The conditions of series [1]: versus Aspirin; cited from earlier work.
For series [2] the following is noted: Form-I obtained by the ethyl acetate process.

With `COC(=O)C(c1ccccc1Cl)N1CCc2sccc2C1` (single isomer, unassigned) [levo-rotatory isomer], the “Platelet aggregation inhibiting activity of the enantiomers” value in the series on platelet aggregation is “less active”.

`COC(=O)[C@H](c1ccccc1Cl)N1CCc2sccc2C1` [Clopidogrel hydrogen sulfate, bisulfate of methyl-(+)-(S)-α-(2-chlorophenyl)-4,5,6,7-tetrahydrothieno[3,2,-c]pyridine-5-acetate]: the “Platelet aggregation inhibiting activity of the enantiomers” value in the series on platelet aggregation is “excellent platelet aggregation inhibiting activity”.

For `COC(=O)[C@H](c1ccccc1Cl)N1CCc2sccc2C1` [Clopidogrel], the “Effectiveness in blocking platelet aggregation compared with Aspirin” value in the series on platelet aggregation (recent studies, versus Aspirin) is listed as “more effective in blocking platelet aggregation than Asprin”. Moreover, the “Gastrointestinal bleeding compared with Aspirin” value in series [1] was “much less gastrointestinal bleeding than Asprin”.

Consider `COC(=O)[C@H](c1ccccc1Cl)N1CCc2sccc2C1` [Form-I, Methyl-(+)-(S)-α-(2-Chlorophenyl)-6,7-dihydrothieno[3,2-c]pyridine-5(4H)-acetate bisulfate Form-I], for which the “Stability of the crystal form / conversion to other forms” value in series [2] is “stable and does not convert to any other forms”.
